# Values of other authors, collected in patent publication US20240315956A1, “METHOD OF PRODUCTION OF THE COMPOSITION OF CYCLOOXYGENASE-2 (COX-2) INHIBITORS” (US NANO FOOD & DRUG INC, priority 2021, published 2024).
solubility in water,pKa,Structure (SMILES)
practically insoluble in water,,Cc1ccc(-c2cc(C(F)(F)F)nn2-c2ccc(S(N)(=O)=O)cc2)cc1 [Celecoxib]
practically insoluble in water,,CCCN1CC(c2ccc(S(C)(=O)=O)cc2)=C(c2ccc(C)cc2)C1=O [Imrecoxib]
,10.73,CCC1(C)CC(=O)NC1=O (stereo not shown) [ethosuximide]
,15,Nc1nnc(-c2cccc(Cl)c2Cl)c(N)n1 [lamotrigine]
